Laboratory results reported in PMC12118597 (Science Advances, 2025).
Like-named read-outs stand apart in the source and are kept apart here.

Legend:
[1] = molecular target: T1, SARS-CoV-2 NSP3 macrodomain (Mac1) (Severe acute respiratory syndrome coronavirus 2, UniProt P0DTD1); test: biochemical; assay type: binding; conditions: for Average % competition: Single dose, concentration 200 μM
[2] = molecular target: T1, SARS-CoV-2 NSP3 macrodomain (Mac1); assay type: binding; conditions: for PanDDA run, TFA/DMSO background map: 1-BDC / PanDDA run, TFA/DMSO background map: Hit: crystal soak 10 mM; for Number of isomers bound: ligand modeling, Mac1 crystal soak
[3] = compound at 200 μM, mean of three to four technical replicates, read-out: % competition at 200 μM (preliminary HTRF screen)
[4] = read-out: IC50 (confirmatory HTRF dose-response screen)
[5] = stereoisomer(s) modeled as bound, residues 201/202/203
[6] = SARS CoV-2 macrodomain HTRF assay, single dose concentration 200 μM, read-out: Average % competition
[7] = SARS CoV-2 macrodomain HTRF assay
[8] = SARS CoV-2 macrodomain HTRF assay, dose-response, read-out: IC50
[9] = stereoisomer(s)/conformations of the soaked ligand modeled in the Mac1 crystal structure

SMILES | inhibition at 200 µM [1, 3] [%] | PanDDA run, TFA/DMSO background map: 1-BDC [2] | PanDDA run, TFA/DMSO background map: Hit [2] | Number of isomers bound [2] | Ki [1, 7] [µM] | Ligand efficiency (binding enery per heavy atom) [1, 7] | other results
C[C@@H](O)[C@H](CO)Nc1ncnc2[nH]ccc12.O=C(O)C(F)(F)F [AVI-3730] | 63 | 0.12 | TRUE | 1 | – | – | Average % competition [1]: 63%
OCC(Cc1ccccc1)Nc1ncnc2[nH]ccc12 (stereo not shown) [AVI-313] | – | – | – | 2 | – | – | Ligand efficiency (binding enery per heavy atom) [1]: 0.27; Ki ([1]; dose-response): 120 µM; IC50 [1, 4]: 130 µM; Isomers modeled [2, 5]: S,R
OC(c1ccccc1)C1CCCN1c1ncnc2[nH]ccc12 (stereo not shown) [AVI-3652] | 35 | 0.16 | TRUE | 1 | – | – | inhibition at 200 µM [1, 6]: 35%
OCC1COCCN1c1ncnc2[nH]ccc12 (stereo not shown) [AVI-3717] | 62 | – | – | 2 | – | – | inhibition at 200 µM [1, 6]: 62%; Isomers modeled [2, 5]: R,S
CC(C)(O)[C@H]1CCCN1c1ncnc2[nH]ccc12 [AVI-607, 2-[(2R)-1-{7H-pyrrolo[2,3-d]pyrimidin-4-yl}pyrrolidin-2-yl]propan-2-ol] | – | – | – | 1 | 4.7 | 0.41 | Ligand efficiency ([1]; Binding energy per heavy atom): 0.41; IC50 [1, 4]: 5.1 µM
OC[C@@H]1C[C@H](F)CN1c1ncnc2[nH]ccc12 [AVI-609] | 52 | – | – | 1 | – | – | inhibition at 200 µM [1, 6]: 52%
CCC(CC)(CO)Nc1ncnc2[nH]ccc12 [AVI-3695] | – | – | – | 1 | 37 | 0.36 | IC50 [1, 8]: 40 µM
CC(C)(O)C1N(c2ncnc3[nH]ccc23)CCC1(C)C (stereo not shown) [AVI-4126] | – | – | – | – | 93 | 0.28 | IC50 [1, 8]: 100 µM; Isomers modeled [2, 9]: R,S
OCC(Cc1cncs1)Nc1ncnc2[nH]ccc12 (stereo not shown) [AVI-3703] | 28 | 0.1 | TRUE | 1 | – | – | Average % competition [1]: 28%
O=C(O)C(F)(F)F.OCC1(Nc2ncnc3[nH]ccc23)CCC1 [AVI-3670] | – | 0.12 | TRUE | 1 | 36 | 0.38 | IC50 [1, 8]: 39 µM
CC(C)(O)C1C2CCC2CN1c1ncnc2[nH]ccc12 (stereo not shown) [AVI-4128] | – | – | – | – | 22 | 0.32 | IC50 [1, 4]: 24 µM; Isomers modeled [2, 9]: SRR
Cn1cc(CC(CO)Nc2ncnc3[nH]ccc23)cn1 (stereo not shown) [AVI-3657] | 24 | 0.09 | TRUE | 1 | – | – | Average % competition [1]: 24%
